29 molecules from patent US10160705B2, “Class of HDAC inhibitors expands the renal progenitor cells population and improves the rate of recovery from acute kidney injury” (University of Pittsburgh—Of the Commonwealth System of …, priority 2011, dated 2018) can be followed below.

The test system of this assay is renal progenitor cells. In words: In situ hybridization for lhx1a expression in 10-somite embryos (renal progenitor cell expansion). In kind it is in vivo. The following applies: for responders at 0.8 µM / responders at 1.5 µM / responders at 3 µM / EC50 / responders at 0.4 µM / responders at 0.2 µM: Danio rerio; for responders at 0.8 µM / responders at 1.5 µM / responders at 3 µM / responders at 0.4 µM / responders at 0.2 µM: percent of embryos with expanded kidney field; for responders at 0.8 µM: 800 nM, read-out: Expansion of Cells (including repeats* and recounts**) 800 nM; for responders at 1.5 µM: read-out: Expansion of Cells (including repeats* and recounts**) 1.5 μM; for responders at 3 µM: read-out: Expansion of Cells (including repeats* and recounts**) 3 μM; for EC50: first pass EC50 from percent expansion (Excel trendline), average where several experiments; for responders at 0.4 µM: 400 nM, read-out: Expansion of Cells (including repeats* and recounts**) 400 nM; for responders at 0.2 µM: 200 nM, read-out: Expansion of Cells (including repeats* and recounts**) 200 nM. On the procedure:
PTBA was synthesized as described below. Hydroxyurea and aphidicolin were obtained from Sigma-Aldrich.
In situ hybridization and immunocytochemistry: In situ hybridization was performed as previously described with some modifications.142 Hybridization temperature was 65° C. Embryos were blocked in 2% blocking reagent (Roche) with 5% sheep serum in MAB (100 mM maleic acid and 150 mM NaCl [pH 7.5]). Whole-mount immunocytochemistry with 1:25 mouse anti-α6F antibody (Developmental Studies Hybridoma Bank) and 1:100 Cy3 secondary antibody (Jackson ImmunoResearch) was performed as described previously.108 Embryos were embedded in JB-4 for sectioning per the manufacturer's instructions (Polysciences), sectioned at 5 μm, and mounted with Cytoseal 60 (Richard-Allan Scientific).
The remaining PTBA analogs were synthesized.
In situ hybridization for lhx1a was performed as described above. […] Compounds were classified as effective, partially-effective or ineffective based on comparison to the effects of PTBA at a given concentration.
Testing of the compounds is on-going, but for those tested, Table 6 provides first pass EC50s based upon colormetric in situ hybridizations for the Lhx1a mRNA expression levels. After the procedure is run, in situ hybridization is done for the lhx1 mRNA expression and the number of embryos that show an expanded kidney field is manually counted to establish the percent of embryos showing expansion. Then the EC50 is determined by plotting the percent expansion in Excel, graphing the results and using the trendline function to determine the 50 percent point.

The EC50 is the midpoint of the concentration-response curve. A higher EC50 goes with a need for much substance.

Turning to `NC(CCSc1ccccc1)C(=O)O` (stereo not drawn) [Compound 2-amino-PTBA, 2-amino-PTBA, reference compound], the “lhx1a expansion, percent of treated embryos” value (3 μM from 2 hpf, 10-somite embryos) is on record as “no expansion”.
As to `COC(=O)CCCCSc1ccc(F)cc1` [UPHD-00032, methyl 5-[(4-fluoro-phenyl)sulfanyl]pentanoate], the responders at 0.8 µM came out at 0%, the responders at 1.5 µM stood at 0%, the responders at 3 µM was found to be 0% and the EC50 was greater than 3 µM.
For `COC(=O)CCCCSc1ccccc1` [UPHD-00033, methyl 5-(phenylsulfanyl)pentanoate], the responders at 0.8 µM is 0%, the responders at 1.5 µM was 5%, the responders at 3 µM was determined as 11% and the EC50 is greater than 3 µM.
As for `O=C(CCCCSc1ccc(F)cc1)NO` [UPHD-00034, 5-[(4-fluoro-phenyl)sulfanyl]-N-hydroxypentanamide], the responders at 0.4 µM was 10%.
For the molecule `O=C(CCCCSc1ccccc1)NO` [UPHD-00035, N-hydroxy-5-(phenyl-sulfanyl)pentanamide], the responders at 0.2 µM was found to be 25%, the responders at 0.4 µM was 10%, the responders at 0.8 µM worked out at 0% and the responders at 1.5 µM is 0%. For the same molecule, the responders at 3 µM was found to be 21.1% and the EC50 was greater than 3 µM.
`Nc1ccccc1NC(=O)CCCSc1ccccc1` [UPHD-00036, N-(2-aminophenyl)-4-(phenylsulfanyl)butanamide]: the responders at 0.8 µM amounted to 45%, the responders at 1.5 µM was found to be 85% and the responders at 3 µM came to 100%.
As to `Nc1ccccc1NC(=O)CCCCSc1ccc(F)cc1` [UPHD-00037, N-(2-aminophenyl)-5-[(4-fluoro-phenyl)sulfanyl]pentanamide], the responders at 0.2 µM was 10% and the EC50 was determined as 2.59 µM.
As for `Nc1ccccc1NC(=O)CCCCSc1ccccc1` [UPHD-00038, N-(2-aminophenyl)-5-(phenylsulfanyl)pentanamide], the responders at 0.8 µM amounted to 58%, the responders at 1.5 µM is 81% and the responders at 3 µM came out at 85%.
For the molecule `COC(=O)CCCCCCSc1ccc(F)cc1` [UPHD-00039, methyl 7-[(4-fluor-phenyl)sulfanyl]heptanoate], the responders at 0.8 µM stood at 20%, the responders at 1.5 µM stood at 35%, the responders at 3 µM was determined as 11% and the EC50 was greater than 3 µM.
Turning to `COC(=O)CCCCCCSc1ccccc1` [UPHD-00040, methyl 7-(phenylsulfanyl)heptanoate], the responders at 0.8 µM is 6%, the responders at 1.5 µM was determined as 15%, the responders at 3 µM amounted to 45% and the EC50 was greater than 3 µM.
On to `O=C(CCCCCCSc1ccccc1)NO` [UPHD-00041, N-hydroxy-7-(phenyl-sulfanyl)heptanamide], for which the responders at 0.8 µM came out at 0%, the responders at 1.5 µM was determined as 0%, the responders at 3 µM is 0% and the EC50 was greater than 3 µM.
For `O=C(CCCCCCSc1ccc(F)cc1)NO` [UPHD-00042, 7-[(4-fluoro-phenyl)sulfanyl]-N-hydroxyheptanamide], the EC50 was greater than 3 µM.
Turning to `Nc1ccccc1NC(=O)CCCCCCSc1ccc(F)cc1` [UPHD-00043, N-(2-aminophenyl)-7-[(4-fluoro-phenyl)sulfanyl]heptanamide], the responders at 0.2 µM was 0%, the responders at 0.4 µM was determined as 15%, the responders at 3 µM turned out to be 57% and the response was half-maximal at 3 µM (EC50).
Turning to `Nc1ccccc1NC(=O)CCCCCCSc1ccccc1` [UPHD-00044, N-(2-aminophenyl)-7-(phenylsulfanyl)heptanamide], the midpoint of the response, the EC50, lay at 1.49 µM.
Take `COC(=O)c1ccc(CSc2ccccc2)cc1` [UPHD-00045, methyl 4[(phenyl-sulfanyl)methyl]benzoate]: the responders at 0.8 µM worked out at 17%, the responders at 1.5 µM turned out to be 0%, the responders at 3 µM was found to be 17% and the EC50 is greater than 3 µM.
Take `COC(=O)c1ccc(CSc2ccc(F)cc2)cc1` [UPHD-00046, methyl 4-{[(4-fluoro-phenyl)sul-fanyl]methyl}benzoate]: the responders at 0.8 µM was determined as 17%, the responders at 1.5 µM amounted to 30%, the responders at 3 µM came out at 20% and the EC50 was greater than 3 µM.
The like results for `COC(=O)CCCCCSc1ccccc1` [UPHD-00047, methyl 6-(phenyl-sulfanyl)hexanoate] were, in that order, 100%, 100%, 100% and 0.4 µM.
Regarding `COC(=O)CCCCCSc1ccc(F)cc1` [UPHD-00048, methyl 6-[(4-fluoro-phenyl)sulfanyl]hexanoate], the responders at 0.8 µM came to 100%, the responders at 1.5 µM turned out to be 100%, the responders at 3 µM was found to be 100% and the EC50 is 0.28 µM.
For the molecule `Nc1ccccc1NC(=O)CCCCCSc1ccccc1` [UPHD-00049, N-(2-aminophenyl)-6-(phenylsulfanyl)hexanamide], the responders at 0.2 µM came out at 5%, the responders at 0.4 µM turned out to be 35%, the responders at 0.8 µM came out at 60% and the responders at 1.5 µM was 95%. For the same molecule, the responders at 3 µM was 100% and the response was half-maximal at 0.89 µM (EC50).
In the case of `O=C(CCCCCSc1ccccc1)NO` [UPHD-00050, N-hydroxy-6-(phenyl-sulfanyl)hexanamide], the responders at 0.8 µM amounted to 0%, the responders at 1.5 µM came to 0%, the responders at 3 µM amounted to 0% and the EC50 is greater than 3 µM.
Take `O=C(CCCCCSc1ccc(F)cc1)NO` [UPHD-00051, 6-[(4-fluoro-phenyl)sulfanyl]-N-hydroxyhexanamide]: the responders at 3 µM is 86.7% and a half-maximal response (EC50) required 1.9 µM.
With `O=C(NO)c1ccc(CSc2ccccc2)cc1` [UPHD-00052, N-hydroxy-4-[(phenyl-sulfanyl)methyl]benzamide], the responders at 0.2 µM is 0%, the responders at 0.4 µM is 0%, the responders at 0.8 µM amounted to 0% and the responders at 1.5 µM is 10%. The same molecule yielded an EC50 greater than 3 µM.
Take `Nc1ccccc1NC(=O)CCCCCSc1ccc(F)cc1` [UPHD-00053, N-(2-aminophenyl)-6-[(4-fluoro-phenyl)sulfanyl]hexanamide]: the responders at 0.2 µM stood at 20%, the responders at 0.4 µM was determined as 5%, the responders at 0.8 µM amounted to 85% and the responders at 1.5 µM is 100%. Besides, the responders at 3 µM amounted to 100% and it took 0.79 µM to reach a half-maximal effect (EC50).
`COC(=O)CCCCCSc1ccc2ccccc2c1` [UPHD-00057, methyl 6-(naphthalen-2-ylsulfanyl)hexanoate]: the responders at 0.2 µM was determined as 19%, the responders at 0.4 µM turned out to be 19%, the responders at 0.8 µM was found to be 11% and the responders at 1.5 µM worked out at 18%. The responders at 3 µM amounted to 29% and the EC50 is greater than 3 µM.
For the molecule `COC(=O)CCCCCSc1ncccn1` [UPHD-00058, methyl 6-(pyrimidin-2-ylsulfanyl)hexanoate], the responders at 0.2 µM was found to be 17%, the responders at 0.4 µM is 33%, the responders at 0.8 µM was 20% and the responders at 1.5 µM turned out to be 28%. In addition, the responders at 3 µM is 6% and the EC50 was greater than 3 µM.
On to `O=C(CCCCCSc1ccc2ccccc2c1)NO` [UPHD-00059, N-hydroxy-6-(naphthalen-2-ylsulfanyl)hexanamide], for which the responders at 0.2 µM turned out to be 0%, the responders at 0.4 µM amounted to 5%, the responders at 0.8 µM was 12% and the responders at 1.5 µM was found to be 16%. The responders at 3 µM came to 33% and the EC50 was greater than 3 µM.
Regarding `Nc1ccccc1NC(=O)CCCCCSc1ccc2ccccc2c1` [UPHD-00060, N-(2-aminophenyl)-6-(naphthalen-2-ylsulfanyl)hexanamide], the responders at 0.2 µM turned out to be 5%, the responders at 0.4 µM came to 0%, the responders at 0.8 µM worked out at 10% and the responders at 1.5 µM came out at 20%. In addition, the responders at 3 µM came to 5% and the EC50 was greater than 3 µM.
On to `O=C(NO)c1ccc(CCSc2ccccc2)cc1` [UPHD-00061, N-hydroxy-4-[2-(phenyl-sulfanyl)ethyl]benzamide], for which the responders at 0.2 µM worked out at 5.5%, the responders at 0.4 µM stood at 0%, the responders at 0.8 µM stood at 0% and the responders at 1.5 µM worked out at 6%. Further, the responders at 3 µM was 37% and the EC50 was greater than 3 µM.
Turning to `COC(=O)CCCCCSc1nc2ccccc2s1` [UPHD-00062], the responders at 0.2 µM was 11%, the responders at 0.4 µM was found to be 12%, the responders at 0.8 µM turned out to be 0% and the responders at 1.5 µM stood at 0%. Also, the responders at 3 µM was found to be 0% and the EC50 was greater than 3 µM.
